Experiments:
[1] = Solubility measurement of crystalline Ibandronate polymorphs in buffer solutions and water (titration); type: physicochemical; settings: 25° C.
Description: The solubility of the individual crystalline Ibandronate polymorphs A and B was measured for various solutions. Approximately 10 g of the corresponding polymorph A or B were suspended in three different buffer solutions at pH 2, pH 4 (Titrisol-buffer, citrate/HCl), at pH 7 (methenamine buffer, HCl) or in water. The suspension was stirred for 24 hours at 25° C. and was kept additonally 24 hours without stirring at the same temperature. Solubility was calculated by titration according to the following method.
The residue was filtered, 2 ml of the filtrate taken, 5 ml of Titriplex III solution were added and diluted with water to 100 ml. 2 ml of this solution were added to approximately 0.1 ml of xylenol orange indicator and the pH was adjusted to 6.5 by adding small portions of methenamine buffer solution or 0.1 M hydrochloric acid. The solution is titrated immediately with Th-DCTA-xylenol orange complex until the color changes from yellow to reddish-violet. The endpoint is determined photometrically.

[2] = Relative thermodynamic stability of Ibandronate polymorphs; settings: polymorph A compared with polymorph B

CCCCCN(C)CCC(O)(P(=O)([O-])O)P(=O)(O)O.O.[Na+] [Polymorph B, 3-(N-methyl-N-pentyl) amino-1-hydroxypropane-1,1-diphosphonic acid monosodium salt monohydrate]
solubility ([1]; pH 2 Titrisol-buffer (citrate/HCl), under at least partial conversion to polymorph A): 274 mg/mL
solubility ([1]; pH 4 Titrisol-buffer (citrate/HCl), under at least partial conversion to polymorph A): 278 mg/mL
solubility ([1]; pH 7 methenamine buffer/HCl, under at least partial conversion to polymorph A): 299 mg/mL
solubility ([1]; water, under at least partial conversion to polymorph A, listed as Ibandronate polymorph B, monosodium salt monohydrate): about 279 g/l
solubility ([1]; water, under at least partial conversion to polymorph A, monosodium salt monohydrate): 279 mg/mL

CCCCCN(C)CCC(O)(P(=O)([O-])O)P(=O)(O)O.O.[Na+] [Polymorph A, 3-(N-methyl-N-pentyl) amino-1-hydroxypropane-1,1-diphosphonic acid monosodium salt monohydrate]
solubility ([1]; pH 2 Titrisol-buffer (citrate/HCl), stirred 24 h + 24 h without stirring): 280 mg/mL
solubility ([1]; pH 4 Titrisol-buffer (citrate/HCl), stirred 24 h + 24 h without stirring): 276 mg/mL
solubility ([1]; pH 7 methenamine buffer/HCl, stirred 24 h + 24 h without stirring): 292 mg/mL
solubility ([1]; water, stirred 24 h + 24 h without stirring): 278 mg/mL
thermodynamic stability relative to the other polymorph [2]: thermodynamically more stable

From patent US7582789B2, “Ibandronate polymorph” (Hoffmann-La Roche Inc., priority 2005, dated 2009)
